The values below come from BindingDB's records for patent US11111252 (Duquesne University of The Holy Spirit, 2021).

The term IC50 denotes the concentration that gives 50% inhibition. Higher therefore signals weaker potency in that assay.

The experiment addresses T1, Dihydrofolate reductase (Pneumocystis jirovecii, UniProt Q9UUP5).
T1 sequence (Q9UUP5 whole entry): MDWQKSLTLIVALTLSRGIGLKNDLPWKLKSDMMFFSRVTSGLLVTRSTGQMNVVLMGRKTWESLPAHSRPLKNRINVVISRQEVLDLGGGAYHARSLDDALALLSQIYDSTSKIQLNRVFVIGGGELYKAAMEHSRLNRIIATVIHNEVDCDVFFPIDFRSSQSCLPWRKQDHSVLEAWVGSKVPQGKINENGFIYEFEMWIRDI
Kind of experiment: Kinase Inhibition Assay.

On to `COc1ccc(Sc2sc3nc(N)nc(N)c3c2C)cc1OC` [US11111252, Compound 1], for which the IC50 worked out at 260 nM.
Then `COc1ccc(Sc2c(C)c3c(N)nc(N)nc3n2C)cc1OC` [US11111252, Compound 9], with 234 nM.
